pIC50: −log10 of the molar value. Activity calls are given as the source filed them. No cut-off for these calls is given here.
Tests used:
NB-4 [1] = test: Induction of apoptosis in human NB4 cells assessed as viable cells at 2.5 uM after 48 hrs by Annexin-V-FITC/PI staining based flow cytometric analysis (reference value: 97.96%); format: functional; settings: read-out: Activity
U-937 [2] = test: Induction of apoptosis in human U-937 cells assessed as decrease in expression level of Bcl-2 measured after 48 hrs by Western blotting analysis; format: functional, cell-based; settings: dose 1-5 µM
KG-1 [3] = test: Induction of apoptosis in human KG-1 cells assessed as decrease in expression level of Bcl-2 measured after 48 hrs by Western blotting analysis; format: functional, cell-based; settings: dose 1-5 µM
NB-4 [4] = test: Induction of apoptosis in human NB4 cells assessed as decrease in expression level of Bcl-2 measured after 48 hrs by Western blotting analysis; format: functional, cell-based; settings: dose 1-5 µM
KG-1 [5] = test: Antitumor activity against human KG-1 cells assessed as reduction in cell viability incubated for 72 hrs; format: functional, cell-based; settings: KG-1, 72 h
U-937 [6] = test: Antitumor activity against human U-937 cells assessed as reduction in cell viability incubated for 72 hrs; format: functional, cell-based; settings: U-937, 72 h
SK-OV-3 [7] = test: Antitumor activity against human SK-OV-3 cells assessed as reduction in cell viability incubated for 72 hrs; format: functional, cell-based; settings: SK-OV-3, 72 h
SK-OV-3 [8] = test: Antitumor activity against taxol-resistant human SK-OV-3 cells assessed as reduction in cell viability incubated for 72 hrs; format: functional, cell-based; settings: SK-OV-3, 72 h
KG-1 [9] = test: Induction of differentiation of human KG-1 cells assessed as increase in CD11b expression at 0.5 uM measured after 72 hrs by flow cytometric analysis; format: functional, cell-based
NB-4 [10] = test: Induction of apoptosis in human NB4 cells assessed as late apoptotic cells at 2.5 uM after 48 hrs by Annexin-V-FITC/PI staining based flow cytometric analysis (reference value: 0.89%); format: functional
HL-60 [11] = test: Induction of apoptosis in human HL-60 cells assessed as early apoptotic cells at 2.5 uM after 48 hrs by Annexin-V-FITC/PI staining based flow cytometric analysis (reference value: 0.68%); format: functional
HL-60 [12] = test: Induction of apoptosis in human HL-60 cells assessed as necrotic cells at 2.5 uM after 48 hrs by Annexin-V-FITC/PI staining based flow cytometric analysis (reference value: 2.83%); format: functional
KG-1 [13] = test: Induction of apoptosis in human KG-1 cells assessed as viable cells at 2.5 uM after 48 hrs by Annexin-V-FITC/PI staining based flow cytometric analysis (reference value: 96.41%); format: functional
KG-1 [14] = test: Induction of apoptosis in human KG-1 cells assessed as late apoptotic cells at 2.5 uM after 48 hrs by Annexin-V-FITC/PI staining based flow cytometric analysis (reference value: 0.16%); format: functional
KG-1 [15] = test: Induction of apoptosis in human KG-1 cells assessed as necrotic cells at 2.5 uM after 48 hrs by Annexin-V-FITC/PI staining based flow cytometric analysis (reference value: 2.73%); format: functional
U-937 [16] = test: Induction of apoptosis in human U-937 cells assessed as viable cells at 2.5 uM after 48 hrs by Annexin-V-FITC/PI staining based flow cytometric analysis (reference value: 94.78%); format: functional; settings: read-out: Activity
U-937 [17] = test: Induction of apoptosis in human U-937 cells assessed as necrotic cells at 2.5 uM after 48 hrs by Annexin-V-FITC/PI staining based flow cytometric analysis (reference value: 1.41%); format: functional
K562 [18] = test: Induction of apoptosis in human K562 cells assessed as necrotic cells at 2.5 uM after 48 hrs by Annexin-V-FITC/PI staining based flow cytometric analysis (reference value: 1.19%); format: functional
THP-1 [19] = test: Induction of apoptosis in human THP-1 cells assessed as viable cells at 2.5 uM after 48 hrs by Annexin-V-FITC/PI staining based flow cytometric analysis (reference value: 93.94%); format: functional; settings: read-out: Activity
THP-1 [20] = test: Induction of apoptosis in human THP-1 cells assessed as early apoptotic cells at 2.5 uM after 48 hrs by Annexin-V-FITC/PI staining based flow cytometric analysis (reference value: 4.61%); format: functional
NB-4 [21] = test: Induction of apoptosis in human NB4 cells assessed as accumulation of cells at sub-G1 phase at 2.5 uM after 48 hrs by PI staining based flow cytometric analysis; format: functional, cell-based
HL-60 [22] = test: Induction of apoptosis in human HL-60 cells assessed as accumulation of cells at sub-G1 phase at 2.5 uM after 48 hrs by PI staining based flow cytometric analysis; format: functional, cell-based
KG-1 [23] = test: Induction of apoptosis in human KG-1 cells assessed as accumulation of cells at sub-G1 phase at 2.5 uM after 48 hrs by PI staining based flow cytometric analysis; format: functional, cell-based
K562 [24] = test: Induction of apoptosis in human K562 cells assessed as accumulation of cells at sub-G1 phase at 2.5 uM after 48 hrs by PI staining based flow cytometric analysis; format: functional, cell-based
U-937 [25] = test: Induction of apoptosis in human U-937 cells assessed as accumulation of cells at G1 phase at 1 to 2.5 uM after 48 hrs by PI staining based flow cytometric analysis; format: functional, cell-based; settings: dose 1-2.5 µM
U-937 [26] = test: Induction of apoptosis in human U-937 cells assessed as change in mitochondrial membrane potential after 48 hrs by JC-1 staining based flow cytometric analysis; format: functional, cell-based
U-937 [27] = test: Induction of reactive oxygen species production in human U-937 cells at 1 to 5 uM measured after 48 hrs by DCF fluorescence analysis; format: functional, cell-based; settings: dose 1-5 µM
NB-4 [28] = test: Induction of apoptosis in human NB4 cells assessed as decrease in expression level of XIAP measured at 1 to 5 uM after 48 hrs by Western blotting analysis; format: functional, cell-based; settings: dose 1-5 µM
NB-4 [29] = test: Induction of apoptosis in human NB4 cells assessed as decrease in expression level of YAP1 measured at 1 to 5 uM after 48 hrs by Western blotting analysis; format: functional, cell-based; settings: dose 1-5 µM
K562 [30] = test: Induction of apoptosis in human K562 cells assessed as decrease in expression level of YAP1 measured at 1 to 5 uM after 48 hrs by Western blotting analysis; format: functional, cell-based; settings: dose 1-5 µM
NB-4 [31] = test: Induction of apoptosis in human NB4 cells assessed as decrease in expression level of caspase 3/9 measured at 1 to 5 uM after 48 hrs by Western blotting analysis; format: functional, cell-based; settings: dose 1-5 µM
KG-1 [32] = test: Induction of apoptosis in human KG-1 cells assessed as decrease in expression level of caspase 3/9 measured at 1 to 5 uM after 48 hrs by Western blotting analysis; format: functional, cell-based; settings: dose 1-5 µM
K562 [33] = test: Induction of apoptosis in human K562 cells assessed as decrease in expression level of caspase 3/9 measured at 1 to 5 uM after 48 hrs by Western blotting analysis; format: functional, cell-based; settings: dose 1-5 µM
U-937 [34] = test: Induction of apoptosis in human U-937 cells assessed as increase in expression level of p21 measured at 1 to 5 uM after 48 hrs by Western blotting analysis; format: functional, cell-based; settings: dose 1-5 µM

pIC50 (U-937 [6]): 5.82 | pIC50 (SK-OV-3 [7]): 5.32 | pIC50 (SK-OV-3 [8]): 5.43
Structure (SMILES): O=C1O[C@@]23C[C@@H](C=CC2=C1C(O)c1ccc([N+](=O)[O-])cc1)N1CCCC[C@H]13 (some centres undefined)
viability at 2.5 µM (NB-4 [1]): 22.9% | Activity (U-937 [2]): Dose-Dependent Effect | Activity (KG-1 [3]): Dose-Dependent Effect | Activity (NB-4 [4]): Dose-Dependent Effect | pIC50 (KG-1 [5]): 5.97 | Activity (KG-1 [9]): Active | Activity (NB-4 [10]): 50.58% | Activity (HL-60 [11]): 18.2% | Activity (HL-60 [12]): 2.42% | Activity (KG-1 [13]): 45.18% | Activity (KG-1 [14]): 46.7% | Activity (KG-1 [15]): 7.79% | viability at 2.5 µM (U-937 [16]): 41.3% | Activity (U-937 [17]): 29.96% | Activity (K562 [18]): 6.62% | viability at 2.5 µM (THP-1 [19]): 69.7% | Activity (THP-1 [20]): 16.82% | Activity (NB-4 [21]): Active | Activity (HL-60 [22]): Active | Activity (KG-1 [23]): Active | Activity (K562 [24]): Active | Activity (U-937 [25]): Active | Activity (U-937 [26]): Active | Activity (U-937 [27]): Active | Activity (NB-4 [28]): Active | Activity (NB-4 [29]): Active | Activity (K562 [30]): Active | Activity (NB-4 [31]): Active | Activity (KG-1 [32]): Active | Activity (K562 [33]): Active | Activity (U-937 [34]): Active
